This is an account of results in patent US20110195041A1, “ANTIMICROBIAL COMPOSITIONS” (NDSU RESEARCH FOUNDATION, priority 2008, published 2011).

For orientation: MIC means the least concentration at which growth counts as inhibited. A low value points to greater potency.

One experiment has as its system C. lytica. The experiment can be described thus: Minimum inhibitory concentration (MIC) of triclosan. Format: cell-based. Particulars: Cellulophaga lytica; marine broth; range 0.2 to 25 μg/mL; complete growth inhibition. The method, then:
(§1) The antimicrobial activity of triclosan toward the microorganisms of interest was determined by measuring the minimum inhibitor concentration (MIC). The protocol for determining the minimum inhibitory concentration (MIC) of antimicrobial agents in solution has been reported previously (described in Stafslien, S., et al., Biofouling, 2007. 23(1/2): 37-44.). Triclosan was serially diluted (2-fold) in marine broth, tryptic soy broth, and Guillard's F/2 medium for the MIC evaluation of C. lytica, S. epidermidis or E. coli, and N. incerta, respectively. The triclosan concentration range evaluated was from 0.2 μg/mL to 25 μg/mL.

The test system of another experiment is S. epidermidis. The description is as above. Particulars: Staphylococcus epidermidis; tryptic soy broth; range 0.2 to 25 μg/mL; complete growth inhibition. The class given is cell-based. The procedure: as §1

Values after ≈ are worked out from the molar mass of the structure shown. A value given as a limit tells only on which side of the number the result lay.

As to `Oc1cc(Cl)ccc1Oc1ccc(Cl)cc1Cl` [Triclosan, 5-chloro-2-(2,4-dichlorophenoxy)phenol], the MIC in the experiment with C. lytica was 12.5 mg/L (≈ 43.2 µM); with S. epidermidis, no more than 0.2 mg/L.
